Paper PMC12163822, “Synthesis and Pharmacological Characterization of a Novel Cannabinoid Receptor 1 Antagonist” (ACS Omega, 2025)

Tests used:
human CB1 receptor = biological target: T1, human CB1 receptor (Homo sapiens, UniProt P21554); test: [3H]CP55,940 inhibition curves in membranes from CHO cells overexpressing human CB1; format: binding
T1 construct: purchased Sigma-Aldrich; host or cells: CHO cells
Description: (§1) Membrane homogenates from CHO cells overexpressing human CB1 and CB2 receptors, as well as matched wild-type cells, were used to test newly synthesized compounds and were acquired from Sigma-Aldrich (St Louis, MO, USA).
(§2) To stop the reaction, an ice-cold wash buffer (50 mM Tris–HCl and 0.5% BSA, pH 7.4) was added. Then, the membranes were retained by vacuum filtration to a Whatman GF/C glass microfiber filter (Sigma-Aldrich, St. Louis, MO, USA) and the free radioligand was discarded. Filters with the bound radioligand were transferred to vials containing 5 mL of Ultima Gold cocktail (Revvity, Boston, MA, USA) and measured with a Packard Tri-Carb 2200CA liquid scintillation counter (Revvity, Boston, MA, USA).
(§3) A concentration of 0.02 mg/mL of commercial WT (as control) and CB1 and CB2 overexpressing CHO cells were used, and the same protocol described above was followed. Rat spleen homogenates were also used at a concentration of 0.1 mg/mL as a further characterization of binding to the CB2 receptor, given the high expression of this receptor in this tissue and the practical lack of CB1 in it.

human CB2 receptor = biological target: T2, human CB2 receptor (Homo sapiens, UniProt P34972); test: [3H]CP55,940 inhibition curves in membranes from CHO cells overexpressing human CB2; format: binding
T2 construct: purchased Sigma-Aldrich; host or cells: CHO cells
Description: as §1, §2, §3

CB2 receptor = biological target: T3, CB2 receptor (Rattus norvegicus, UniProt Q9QZN9); test: [3H]CP55,940 inhibition curves in rat spleen membrane homogenates (CB2-enriched); format: binding, Sprague-Dawley rat
T3 construct: from tissue; host or cells: Sprague-Dawley rat spleen
T3 sequence (Q9QZN9 1-360): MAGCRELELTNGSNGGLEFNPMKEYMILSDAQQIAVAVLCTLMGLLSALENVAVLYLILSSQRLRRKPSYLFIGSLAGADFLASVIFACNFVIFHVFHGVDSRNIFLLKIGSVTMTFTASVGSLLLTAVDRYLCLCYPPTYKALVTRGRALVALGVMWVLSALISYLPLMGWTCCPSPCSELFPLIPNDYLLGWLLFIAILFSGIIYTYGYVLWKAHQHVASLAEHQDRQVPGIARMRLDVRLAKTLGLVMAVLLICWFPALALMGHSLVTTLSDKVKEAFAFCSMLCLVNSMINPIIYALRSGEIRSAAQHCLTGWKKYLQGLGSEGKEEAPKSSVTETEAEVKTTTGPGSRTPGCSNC
Description: Sprague–Dawley rats (n = 5) were anesthetized and sacrificed by decapitation. Spleens and brains were then quickly removed by dissection at 4 °C, and in the case of the brain tissue, the cortex was dissected for the preparation of the membrane homogenates. For this procedure, spleen and cortex samples were homogenized using a Teflon-glass grinder (15 up-and-down strokes at 800 rpm) in 30 volumes of homogenization buffer (1 mM EGTA, 3 mM MgCl2, 50 mM Tris–HCl; pH 7.4) supplemented with […], at 4 °C. The obtained homogenates were centrifuged for 5 min at 1500 rpm. Pellets were removed, and supernatants were centrifuged again for 15 min at 14,000 rpm. For washing, the obtained pellets were resuspended in a buffer and centrifuged again, and the supernatant was removed. The resulting aliquots were stored at −80 °C until use.
as §2, with “USA). […]” for “USA).”

CB1 receptor [1] = biological target: T4, CB1 receptor (Mus musculus, UniProt P47746); test: [3H]CP55,940 receptor autoradiography in mouse brain slices; format: binding, Swiss mice; conditions: for [3H]CP55,940 binding: mouse, 3 nM [3H]CP55,940 in the presence of compound 10 µM
T4 construct: fresh frozen sections from brain samples from wild-type; from tissue; host or cells: Swiss mouse brain sections
Description: All brain sections were air-dried for 30 min and later immersed in Coplin jars for preincubation in a buffer containing 50 mM Tris–HCl and 1% of BSA (pH 7.4) for 30 min at room temperature. The objective of this preincubation was to remove endogenous ligands. […] Following incubation, tissue slices were washed with an ice-cold preincubation buffer, dipped in distilled water, and dried overnight. To generate autoradiograms, dry sections were placed in hermetically closed cassettes and exposed to β-radiation-sensitive films for 21 days at 4 °C. To calibrate the optical densities to fmol/mg tissue equivalent, [^3H]-microscales were exposed to the films. To quantify the calibrated films after scanning, Fiji software (Bethesda, […], USA) was used.

CB1 receptor [2] = biological target: CB1 receptor (Rattus norvegicus, UniProt P20272); test: Functional [35S]GTPγS autoradiography in rat brain slices; format: biochemical, Sprague-Dawley rat; design: fresh frozen sections from brain samples from wild-type; from tissue; host or cells: Sprague-Dawley rat brain sections; conditions: for [35S]GTPγS binding, Stimulation (% over basal), CP55,940 + UVI3502 / [35S]GTPγS binding, Stimulation (% over basal): rat; for [35S]GTPγS binding, Stimulation (% over basal), CP55,940 + UVI3502: CP55,940 and UVI3502 both at 10 µM; for [35S]GTPγS binding, Stimulation (% over basal): compound alone 10 µM
Description: All brain sections were air-dried for 30 min and then immersed in Coplin jars for preincubation (4 times, 15 min each time) in an HEPES-based buffer (50 mM HEPES, 100 mM NaCl, 3 mM MgCl2, 0.2 mM EGTA, 0.5% BSA; pH 7.4) at 30 °C. The objective of this preincubation was the removal of endogenous ligands. […] Basal [^35S]-GTPγS binding was defined in the absence of the agonists in two consecutive slices. To define nonspecific binding, 10 μM of unlabeled GTPγS was added to the incubation in another section. Following incubation, slices were twice washed in an ice-cold 50 mM HEPES buffer (pH 7.4), dried, and exposed for 48 h to β-radiation sensitive film with a set of [^14C] standards calibrated for [^35S]. Calibrated films were scanned and quantified using Fiji software (Fiji, Bethesda, […], USA). The signal corresponding to nonspecific binding was previously subtracted from the basal and agonist-stimulated binding. Then, the data was expressed as the percentage of stimulation over basal following the formula: ([^35S]-GTPγS agonist-stimulated binding) × 100/([^35S]-GTPγS basal binding)-100.

[3] = nucleus basalis magnocellularis

CB1 receptor (Rattus norvegicus, UniProt P20272), sequence (P20272 whole entry): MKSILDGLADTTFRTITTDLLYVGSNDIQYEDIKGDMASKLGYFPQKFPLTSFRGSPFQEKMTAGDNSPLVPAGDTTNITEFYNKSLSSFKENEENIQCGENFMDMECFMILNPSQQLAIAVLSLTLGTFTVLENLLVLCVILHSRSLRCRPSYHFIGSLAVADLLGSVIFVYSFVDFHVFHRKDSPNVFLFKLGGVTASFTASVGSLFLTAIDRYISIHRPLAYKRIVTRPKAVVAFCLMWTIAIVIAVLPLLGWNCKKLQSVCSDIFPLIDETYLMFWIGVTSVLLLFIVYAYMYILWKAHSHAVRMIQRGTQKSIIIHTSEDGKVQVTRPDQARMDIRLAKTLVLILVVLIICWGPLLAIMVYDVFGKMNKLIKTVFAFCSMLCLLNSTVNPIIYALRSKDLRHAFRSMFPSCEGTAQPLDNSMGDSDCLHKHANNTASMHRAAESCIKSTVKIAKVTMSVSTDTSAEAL
T4 sequence (P47746 whole entry): as the sequence (P20272 whole entry) above, with E95D counted along it
T1 sequence (P21554 whole entry): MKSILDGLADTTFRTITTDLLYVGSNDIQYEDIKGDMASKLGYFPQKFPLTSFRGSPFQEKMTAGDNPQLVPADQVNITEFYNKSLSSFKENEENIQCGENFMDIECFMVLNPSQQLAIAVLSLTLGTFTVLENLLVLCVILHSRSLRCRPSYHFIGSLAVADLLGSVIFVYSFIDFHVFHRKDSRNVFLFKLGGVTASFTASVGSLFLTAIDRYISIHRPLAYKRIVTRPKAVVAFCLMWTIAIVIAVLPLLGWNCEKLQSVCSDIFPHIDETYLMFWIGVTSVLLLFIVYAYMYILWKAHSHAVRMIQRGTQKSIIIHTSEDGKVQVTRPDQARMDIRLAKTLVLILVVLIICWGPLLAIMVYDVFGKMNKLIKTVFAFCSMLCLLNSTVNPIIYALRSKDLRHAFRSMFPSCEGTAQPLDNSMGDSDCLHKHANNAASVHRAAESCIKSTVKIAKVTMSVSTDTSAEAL
T2 sequence (P34972 whole entry): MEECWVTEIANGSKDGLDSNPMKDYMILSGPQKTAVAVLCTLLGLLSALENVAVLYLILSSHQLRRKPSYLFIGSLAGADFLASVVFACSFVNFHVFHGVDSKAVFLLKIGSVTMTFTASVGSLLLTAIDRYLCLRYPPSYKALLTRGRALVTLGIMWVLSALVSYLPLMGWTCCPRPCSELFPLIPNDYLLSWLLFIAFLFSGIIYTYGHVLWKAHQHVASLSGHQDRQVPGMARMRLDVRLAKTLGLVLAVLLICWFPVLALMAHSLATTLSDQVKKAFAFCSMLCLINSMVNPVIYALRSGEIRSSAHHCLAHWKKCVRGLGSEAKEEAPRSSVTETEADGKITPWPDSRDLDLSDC

- IC50 (human CB1 receptor): 4.64 ± 1.6 µM
- total inhibition of [3H]CP55,940 binding (human CB1 receptor; CB1 overexpressing CHO membranes): approximately 38%
- IC50 (human CB2 receptor): 16.2 ± 0.131 µM
- maximum inhibition of [3H]CP55,940 binding (human CB2 receptor; CB2 overexpressing CHO membranes): approximately 83%
- IC50 (CB2 receptor): 10.23 ± 0.0178 µM
- maximum inhibition of [3H]CP55,940 binding (CB2 receptor; rat spleen membrane homogenates): ~61%
- inhibition of [3H]CP55,940 binding in brain areas (CB1 receptor [1]; mouse brain slices, 10 µM, result in words): partially inhibit
- [3H]CP55,940 binding (CB1 receptor [1]; amygdala): 154 ± 8 fmol/mg t.e.
- [3H]CP55,940 binding (CB1 receptor [1]; cerebellum (gray matter)): 409 ± 207 fmol/mg t.e.
- [3H]CP55,940 binding (CB1 receptor [1]; cortex): 118 ± 18 fmol/mg t.e.
- [3H]CP55,940 binding (CB1 receptor [1]; globus pallidus): 698 ± 16 fmol/mg t.e.
- [3H]CP55,940 binding (CB1 receptor [1]; hippocampus dorsal): 181 ± 9 fmol/mg t.e.
- [3H]CP55,940 binding (CB1 receptor [1]; [3]): 202 ± 19 fmol/mg t.e.
- [3H]CP55,940 binding (CB1 receptor [1]; striatum): 159 ± 11 fmol/mg t.e.
- [3H]CP55,940 binding (CB1 receptor [1]; substantia nigra): 1075 ± 22 fmol/mg t.e.
- activity on CP55,940-evoked [35S]GTPγS stimulation (CB1 receptor [2]; rat brain slices, 10 µM, result in words): acts as an antagonist
- [35S]GTPγS binding, Stimulation (% over basal), CP55,940 + UVI3502 (CB1 receptor [2]; amygdala): -47 ± 30 % over basal
- [35S]GTPγS binding, Stimulation (% over basal) (CB1 receptor [2]; amygdala): -35 ± 19 % over basal
- [35S]GTPγS binding, Stimulation (% over basal), CP55,940 + UVI3502 (CB1 receptor [2]; cerebellum (gray matter)): -46 ± 31 % over basal
- [35S]GTPγS binding, Stimulation (% over basal) (CB1 receptor [2]; cerebellum (gray matter)): -16 ± 51 % over basal
- [35S]GTPγS binding, Stimulation (% over basal), CP55,940 + UVI3502 (CB1 receptor [2]; cortex): -60 ± 10 % over basal
- [35S]GTPγS binding, Stimulation (% over basal) (CB1 receptor [2]; cortex): -45 ± 24 % over basal
- [35S]GTPγS binding, Stimulation (% over basal), CP55,940 + UVI3502 (CB1 receptor [2]; globus pallidus): 89 ± 42 % over basal
- [35S]GTPγS binding, Stimulation (% over basal) (CB1 receptor [2]; globus pallidus): -3 ± 46 % over basal
- [35S]GTPγS binding, Stimulation (% over basal), CP55,940 + UVI3502 (CB1 receptor [2]; hippocampus dorsal): -62 ± 6 % over basal
- [35S]GTPγS binding, Stimulation (% over basal) (CB1 receptor [2]; hippocampus dorsal): -40 ± 26 % over basal
- [35S]GTPγS binding, Stimulation (% over basal), CP55,940 + UVI3502 (CB1 receptor [2]; [3]): -40 ± 11 % over basal
- [35S]GTPγS binding, Stimulation (% over basal) (CB1 receptor [2]; [3]): -35 ± 30 % over basal
- [35S]GTPγS binding, Stimulation (% over basal), CP55,940 + UVI3502 (CB1 receptor [2]; striatum): -54 ± 23 % over basal
- [35S]GTPγS binding, Stimulation (% over basal) (CB1 receptor [2]; striatum): -34 ± 25 % over basal
- [35S]GTPγS binding, Stimulation (% over basal), CP55,940 + UVI3502 (CB1 receptor [2]; substantia nigra): 14 ± 80 % over basal
- [35S]GTPγS binding, Stimulation (% over basal) (CB1 receptor [2]; substantia nigra): -41 ± 24 % over basal
Structure (SMILES): CCOC(=O)/C=C1\C(=O)Nc2ccc(C)cc2-c2c1c1cc(OC)ccc1n2C(=O)OCC [UVI3502]
